Source: ChEMBL document CHEMBL3868615, “Decahydrobenzoquinolin-5-one sigma receptor ligands: Divergent development of both sigma 1 and sigma 2 receptor selective examples” (Bioorg Med Chem Lett, 2016)

Columns and labels:
[1] = target: 5-hydroxytryptamine receptor 7 (Homo sapiens, UniProt P34969); assay: Displacement of [3H]LSD from human 5-HT7 receptor expressed in HEK cells measured after 90 mins by microbeta scintillation counting method; assay type: cell-based, HEK293
[2] = target: Alpha-2A adrenergic receptor (Homo sapiens) (UniProt P08913); conditions: MDCK, 10 uM
[3] = test system: PC-12; assay: Selectivity ratio of Ki for guinea pig sigma1 receptor to Ki for sigma2 receptor in rat PC12 cells; assay type: cell-based
[4] = target: Alpha-2B adrenergic receptor (Homo sapiens) (UniProt P18089); conditions: HEK-T, 10 uM
[5] = target: Histamine H4 receptor (Homo sapiens, UniProt Q9H3N8); assay: Displacement of [3H]Histamine from H4 receptor (unknown origin) measured after 90 mins by microbeta scintillation counting method
[6] = target: 5-hydroxytryptamine receptor 2C (Homo sapiens, UniProt P28335); assay: Displacement of [3H]Mesulergine from human 5-HT2C receptor expressed in Flp-IN HEK cells measured after 90 mins by microbeta scintillation counting method; assay type: cell-based, HEK293
[7] = target: 5-hydroxytryptamine receptor 2A (Homo sapiens, UniProt P28223); assay: Displacement of [3H]Ketanserin from 5-HT2A receptor (unknown origin) measured after 90 mins by microbeta scintillation counting method
[8] = target: Mu-type opioid receptor (Homo sapiens, UniProt P35372); conditions: HEK293, 10 uM
[9] = target: T1, 5-hydroxytryptamine receptor 1A (Homo sapiens, UniProt P08908); assay: Displacement of [3H]Way100635 from human 5-HT1A receptor expressed in CHO cells measured after 90 mins by microbeta scintillation counting method; assay type: cell-based
T1 sequence (P08908 whole entry): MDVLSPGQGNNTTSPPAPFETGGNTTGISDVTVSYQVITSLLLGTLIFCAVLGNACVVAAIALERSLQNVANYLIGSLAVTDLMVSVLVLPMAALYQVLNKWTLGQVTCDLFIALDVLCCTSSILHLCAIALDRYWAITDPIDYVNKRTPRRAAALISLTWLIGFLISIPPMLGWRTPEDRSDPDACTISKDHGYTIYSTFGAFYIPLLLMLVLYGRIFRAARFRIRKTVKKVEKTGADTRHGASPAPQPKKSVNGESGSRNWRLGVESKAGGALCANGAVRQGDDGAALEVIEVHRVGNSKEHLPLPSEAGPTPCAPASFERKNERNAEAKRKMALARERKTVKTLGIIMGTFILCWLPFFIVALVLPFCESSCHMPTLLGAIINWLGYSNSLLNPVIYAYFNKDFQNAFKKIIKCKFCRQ

[10] = target: D(3) dopamine receptor (Homo sapiens, UniProt P35462); assay: Displacement of [3H]N-methylspiperone from D3 receptor (unknown origin) expressed in HEK-T cells measured after 90 mins by microbeta scintillation counting method; assay type: cell-based
[11] = target: Alpha-2C adrenergic receptor (Homo sapiens) (UniProt P18825); conditions: MDCK, 10 uM
[12] = target: Kappa-type opioid receptor (Homo sapiens, UniProt P41145); conditions: HEKT, 10 uM
[13] = target: D(4) dopamine receptor (Homo sapiens, UniProt P21917); assay: Displacement of [3H]N-methylspiperone from human D4 receptor measured after 90 mins by microbeta scintillation counting method
[14] = target: 5-hydroxytryptamine receptor 6 (Homo sapiens, UniProt P50406); assay: Displacement of [3H]LSD from human 5-HT6 receptor expressed in HEK cells measured after 90 mins by microbeta scintillation counting method; assay type: cell-based, HEK293
[15] = Displacement of [3H]Muscimol from GABAA receptor in rat brain measured after 90 mins by microbeta scintillation counting method; assay type: tissue-based
[16] = target: T2, Histamine H3 receptor (Homo sapiens, UniProt Q9Y5N1); assay: Displacement of [3H]alpha-methylhistamine from human H3 receptor expressed in HEK Flp-In cells measured after 90 mins by microbeta scintillation counting method; assay type: cell-based, HEK293
[17] = target: 5-hydroxytryptamine receptor 2C (Homo sapiens) (UniProt P28335); conditions: HEK293, 10 uM
[18] = target: Muscarinic acetylcholine receptor M3 (Homo sapiens, UniProt P20309); assay: Binding affinity to human M3 receptor expressed in CHO cells at 10 uM measured after 90 mins by radioligand binding assay relative to control; assay type: cell-based
[19] = target: Muscarinic acetylcholine receptor M5 (Homo sapiens) (UniProt P08912); assay: Binding affinity to human M5 receptor expressed in CHO cells at 10 uM measured after 90 mins by radioligand binding assay relative to control; assay type: cell-based
[20] = target: 5-hydroxytryptamine receptor 2B (Homo sapiens, UniProt P41595); conditions: HEK293, 10 uM
[21] = target: T2, Histamine H3 receptor; conditions: HEK293, 10 uM
[22] = target: Sodium-dependent dopamine transporter (Homo sapiens, UniProt Q01959); conditions: HEK293, 10 uM

T2 sequence (Q9Y5N1 whole entry): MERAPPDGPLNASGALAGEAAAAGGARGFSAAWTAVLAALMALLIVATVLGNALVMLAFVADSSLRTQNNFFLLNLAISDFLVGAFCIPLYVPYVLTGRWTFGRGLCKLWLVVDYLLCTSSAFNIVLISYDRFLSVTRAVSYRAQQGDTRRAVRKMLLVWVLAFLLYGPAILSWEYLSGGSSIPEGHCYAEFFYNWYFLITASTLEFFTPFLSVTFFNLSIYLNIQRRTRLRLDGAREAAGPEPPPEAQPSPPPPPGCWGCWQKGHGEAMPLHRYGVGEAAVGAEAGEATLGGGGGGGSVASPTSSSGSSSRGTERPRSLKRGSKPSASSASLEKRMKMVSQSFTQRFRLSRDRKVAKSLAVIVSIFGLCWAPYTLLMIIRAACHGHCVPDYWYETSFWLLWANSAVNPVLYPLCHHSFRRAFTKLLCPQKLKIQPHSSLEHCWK
Sequence of Histamine H4 receptor (Q9H3N8 whole entry): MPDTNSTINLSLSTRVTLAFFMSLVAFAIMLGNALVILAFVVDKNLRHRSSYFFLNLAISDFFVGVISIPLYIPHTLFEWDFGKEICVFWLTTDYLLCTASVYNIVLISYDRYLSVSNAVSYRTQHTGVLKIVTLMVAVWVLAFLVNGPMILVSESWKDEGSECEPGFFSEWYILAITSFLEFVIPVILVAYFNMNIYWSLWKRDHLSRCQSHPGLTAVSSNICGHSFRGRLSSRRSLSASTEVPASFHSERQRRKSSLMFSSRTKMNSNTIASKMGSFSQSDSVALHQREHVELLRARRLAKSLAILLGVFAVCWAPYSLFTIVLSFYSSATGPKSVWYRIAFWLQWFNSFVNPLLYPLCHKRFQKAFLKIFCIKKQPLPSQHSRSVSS
Sequence of 5-hydroxytryptamine receptor 2C (P28335 whole entry): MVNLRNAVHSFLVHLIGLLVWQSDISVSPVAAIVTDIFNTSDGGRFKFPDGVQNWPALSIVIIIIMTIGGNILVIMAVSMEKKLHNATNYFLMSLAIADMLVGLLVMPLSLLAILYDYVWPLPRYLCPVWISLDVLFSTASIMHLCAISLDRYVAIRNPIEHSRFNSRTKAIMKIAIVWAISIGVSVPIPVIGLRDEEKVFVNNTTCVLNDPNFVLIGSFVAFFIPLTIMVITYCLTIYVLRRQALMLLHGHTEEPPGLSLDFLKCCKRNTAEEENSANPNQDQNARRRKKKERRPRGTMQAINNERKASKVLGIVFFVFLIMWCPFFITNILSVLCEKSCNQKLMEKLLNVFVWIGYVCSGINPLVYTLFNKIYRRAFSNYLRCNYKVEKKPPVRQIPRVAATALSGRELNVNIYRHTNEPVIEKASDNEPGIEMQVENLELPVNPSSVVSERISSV
Sequence of 5-hydroxytryptamine receptor 2A (P28223 whole entry): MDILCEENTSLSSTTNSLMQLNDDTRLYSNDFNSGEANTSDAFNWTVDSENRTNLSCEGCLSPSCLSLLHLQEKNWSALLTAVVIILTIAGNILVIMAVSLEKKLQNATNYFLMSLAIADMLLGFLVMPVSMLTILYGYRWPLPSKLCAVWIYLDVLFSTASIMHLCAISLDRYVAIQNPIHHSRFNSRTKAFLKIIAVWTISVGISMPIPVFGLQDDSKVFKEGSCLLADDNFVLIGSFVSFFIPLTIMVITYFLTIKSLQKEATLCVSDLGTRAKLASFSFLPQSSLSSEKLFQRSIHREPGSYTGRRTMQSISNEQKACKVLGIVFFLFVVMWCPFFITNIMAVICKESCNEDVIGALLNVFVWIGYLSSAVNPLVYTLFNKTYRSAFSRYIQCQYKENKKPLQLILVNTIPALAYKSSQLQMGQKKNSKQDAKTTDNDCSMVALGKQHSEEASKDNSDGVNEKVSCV
Sequence of 5-hydroxytryptamine receptor 7 (P34969 whole entry): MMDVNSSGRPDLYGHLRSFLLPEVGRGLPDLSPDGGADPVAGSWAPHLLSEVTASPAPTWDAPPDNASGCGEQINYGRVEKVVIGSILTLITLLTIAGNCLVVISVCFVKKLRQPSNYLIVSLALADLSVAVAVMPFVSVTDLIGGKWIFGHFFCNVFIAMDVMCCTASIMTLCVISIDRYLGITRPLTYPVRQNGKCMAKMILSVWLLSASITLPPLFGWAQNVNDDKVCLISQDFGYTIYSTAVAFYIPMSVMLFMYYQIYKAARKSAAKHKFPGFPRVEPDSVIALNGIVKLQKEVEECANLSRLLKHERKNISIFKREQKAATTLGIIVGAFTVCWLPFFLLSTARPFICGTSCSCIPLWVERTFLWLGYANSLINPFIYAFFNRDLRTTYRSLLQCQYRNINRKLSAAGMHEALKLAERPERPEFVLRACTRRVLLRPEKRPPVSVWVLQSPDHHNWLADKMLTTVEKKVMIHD
Sequence of D(3) dopamine receptor (P35462 whole entry): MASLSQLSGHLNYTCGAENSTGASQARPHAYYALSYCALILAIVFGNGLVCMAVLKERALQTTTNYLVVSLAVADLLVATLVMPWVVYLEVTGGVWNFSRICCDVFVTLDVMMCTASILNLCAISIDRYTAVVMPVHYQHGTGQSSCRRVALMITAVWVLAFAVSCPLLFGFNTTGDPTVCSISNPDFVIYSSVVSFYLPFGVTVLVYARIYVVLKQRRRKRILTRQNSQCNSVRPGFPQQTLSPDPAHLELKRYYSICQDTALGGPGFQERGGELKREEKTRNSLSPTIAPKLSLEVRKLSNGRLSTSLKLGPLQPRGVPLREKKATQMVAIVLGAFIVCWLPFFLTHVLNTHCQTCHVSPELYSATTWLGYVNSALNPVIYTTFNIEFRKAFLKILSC
Sequence of 5-hydroxytryptamine receptor 6 (P50406 whole entry): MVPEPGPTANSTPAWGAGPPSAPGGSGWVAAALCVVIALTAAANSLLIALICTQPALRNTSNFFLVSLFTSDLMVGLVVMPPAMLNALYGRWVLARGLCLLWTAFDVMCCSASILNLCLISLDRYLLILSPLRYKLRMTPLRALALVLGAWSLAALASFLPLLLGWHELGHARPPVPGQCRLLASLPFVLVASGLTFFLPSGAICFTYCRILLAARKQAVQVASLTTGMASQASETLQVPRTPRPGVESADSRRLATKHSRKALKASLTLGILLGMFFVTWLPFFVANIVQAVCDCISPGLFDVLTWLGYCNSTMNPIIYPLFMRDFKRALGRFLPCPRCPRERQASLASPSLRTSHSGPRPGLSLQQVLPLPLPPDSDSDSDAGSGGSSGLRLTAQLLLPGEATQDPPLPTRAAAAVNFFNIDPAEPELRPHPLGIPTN
Sequence of D(4) dopamine receptor (P21917 whole entry): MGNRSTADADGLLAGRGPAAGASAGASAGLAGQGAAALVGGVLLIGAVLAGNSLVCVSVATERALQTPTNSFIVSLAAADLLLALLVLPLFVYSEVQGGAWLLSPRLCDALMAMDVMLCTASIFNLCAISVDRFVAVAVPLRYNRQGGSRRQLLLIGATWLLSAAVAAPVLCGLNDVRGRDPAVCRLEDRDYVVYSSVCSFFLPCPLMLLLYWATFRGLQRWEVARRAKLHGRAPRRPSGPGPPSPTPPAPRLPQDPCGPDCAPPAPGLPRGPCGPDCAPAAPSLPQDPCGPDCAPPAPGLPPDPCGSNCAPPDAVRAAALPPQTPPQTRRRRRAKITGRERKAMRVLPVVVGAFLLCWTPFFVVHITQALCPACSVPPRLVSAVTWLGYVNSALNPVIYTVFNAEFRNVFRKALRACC
Sequence of Muscarinic acetylcholine receptor M5 (Homo sapiens) (P08912 whole entry): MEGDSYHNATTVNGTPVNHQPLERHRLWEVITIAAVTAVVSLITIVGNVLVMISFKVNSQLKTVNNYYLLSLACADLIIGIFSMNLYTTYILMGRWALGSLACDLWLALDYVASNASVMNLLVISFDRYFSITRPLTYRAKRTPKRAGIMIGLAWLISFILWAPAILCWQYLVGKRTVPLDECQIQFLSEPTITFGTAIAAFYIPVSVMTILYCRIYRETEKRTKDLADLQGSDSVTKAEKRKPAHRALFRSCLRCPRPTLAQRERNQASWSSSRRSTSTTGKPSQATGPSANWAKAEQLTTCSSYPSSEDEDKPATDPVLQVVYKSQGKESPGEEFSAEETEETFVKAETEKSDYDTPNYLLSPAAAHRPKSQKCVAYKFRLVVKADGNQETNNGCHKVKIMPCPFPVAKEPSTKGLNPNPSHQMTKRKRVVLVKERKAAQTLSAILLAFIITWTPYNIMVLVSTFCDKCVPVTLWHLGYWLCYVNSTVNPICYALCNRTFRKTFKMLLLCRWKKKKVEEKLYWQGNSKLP
Sequence of 5-hydroxytryptamine receptor 2B (P41595 whole entry): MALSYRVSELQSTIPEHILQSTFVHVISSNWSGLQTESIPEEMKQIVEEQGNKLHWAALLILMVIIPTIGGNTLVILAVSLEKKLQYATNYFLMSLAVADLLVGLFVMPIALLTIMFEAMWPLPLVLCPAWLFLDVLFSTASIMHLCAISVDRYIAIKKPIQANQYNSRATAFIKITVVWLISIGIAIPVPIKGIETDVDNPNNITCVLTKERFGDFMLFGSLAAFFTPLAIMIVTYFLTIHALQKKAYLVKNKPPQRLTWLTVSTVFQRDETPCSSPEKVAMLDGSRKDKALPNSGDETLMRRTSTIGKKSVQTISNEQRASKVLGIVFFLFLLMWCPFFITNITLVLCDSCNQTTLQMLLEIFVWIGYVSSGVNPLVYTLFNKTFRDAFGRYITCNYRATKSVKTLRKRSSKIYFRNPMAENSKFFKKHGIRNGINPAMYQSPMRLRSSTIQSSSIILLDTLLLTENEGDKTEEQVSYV
Sequence of 5-hydroxytryptamine receptor 2C (Homo sapiens) (P28335 whole entry): as the sequence (P28335 whole entry) above
Sequence of Kappa-type opioid receptor (P41145 whole entry): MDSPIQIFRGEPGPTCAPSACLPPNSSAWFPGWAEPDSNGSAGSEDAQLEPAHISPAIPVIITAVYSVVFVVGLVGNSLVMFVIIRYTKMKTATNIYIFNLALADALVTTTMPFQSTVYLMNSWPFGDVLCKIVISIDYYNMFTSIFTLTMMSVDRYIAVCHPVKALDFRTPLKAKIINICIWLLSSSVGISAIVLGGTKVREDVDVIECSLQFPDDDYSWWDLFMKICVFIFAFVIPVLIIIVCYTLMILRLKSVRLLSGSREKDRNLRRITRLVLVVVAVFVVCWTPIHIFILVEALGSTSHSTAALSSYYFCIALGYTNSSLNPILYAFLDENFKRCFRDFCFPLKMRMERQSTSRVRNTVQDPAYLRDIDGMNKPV

For `CCCN1CC[C@H]2c3cc4ccc(C(F)(F)F)cc4nc3[C@H](CC)[C@H]3CCC[C@@H]1[C@@H]32`, the Ki [1] was greater than 10 µM, the inhibition [2] was greater than 50% and the Ratio Ki [3] was 28. For the same compound, the inhibition [4] was greater than 50%, the Ki [5] was greater than 10 µM and the Ki [6] was greater than 10 µM. For the same compound, the Ki [7] was greater than 10 µM, the inhibition [8] was greater than 50% and the Ki [9] was greater than 10 µM. For the same compound, the Ki [10] was greater than 10 µM, the inhibition [11] was greater than 50% and the inhibition [12] was greater than 50%. It also gave a Ki [13] greater than 10 µM, a Ki [14] greater than 10 µM and a Ki [15] greater than 10 µM. For the same compound, the Ki [16] was greater than 10 µM.

`CN1CC[C@H]2CC(=O)[C@H](Cc3ccccc3)[C@H]3CCC[C@@H]1[C@H]23` gave an inhibition [17] greater than 50%, a Ki [1] greater than 10 µM and an Activity [18] greater than 50%. The Ki [5] was greater than 10 µM, the Ki [6] was 1.68 µM and the Ki [7] was greater than 10 µM. It also gave an Activity [19] greater than 50%, an inhibition [20] greater than 50% and a Ki [9] greater than 10 µM. For the same compound, the Ki [10] was greater than 10 µM, the inhibition [21] was greater than 50% and the inhibition [22] was greater than 50%. It also gave a Ki [13] greater than 10 µM, a Ki [14] greater than 10 µM and a Ki [15] greater than 10 µM. The Ki [16] was 0.814 µM.
